Measured values published in patent US5595756A, “Liposomal compositions for enhanced retention of bioactive agents” (Inex Pharmaceuticals Corporation, priority 1993, dated 1997).

Columns and labels:
[1] = test system: P388 lymphocytic leukemia; assay: P388 antitumor activity (murine lymphocytic leukemia model), free and liposomal vincristine i.v.; conditions: for Median Survival / 60-day Survival: i.v.; for Median Survival: saline control 10.0; for 60-day Survival: survivors/total; for % ILS (increase in life span): from median survival, treated vs saline control
Description: The antitumor effects of liposomal vincristine were monitored using the P388 lymphocytic leukemia model. BDF1 mice (5 per group) were injected i.p. with 1×10^6 P388 cells. The indicated doses of saline or liposomal vincristine were administered (i.v.) 24 h after tumor inoculation. Animal weights and mortality were monitored daily. Mean and median survival times as well as the statistical significance of the results were determined using the Mann-Whitney-Wilcoxon procedure.
Murine P388 antitumor activity of the DSPC/Chol/GM1 pH 2 liposomal vincristine preparation was compared to free drug and DSPC/Chol pH 4 liposomal vincristine (Table I below).

[2] = Drug induced weight change in P388-bearing mice (% wt change on day 7); type: in vivo, BDF1 mice; conditions: i.v.
Description: Animal weights and mortality were monitored daily.

[3] = drug dose 1.0 mg/kg, lipid dose 10 mg/kg
[4] = drug dose 2.0 mg/kg, lipid dose 20 mg/kg
[5] = drug dose 3.0 mg/kg, lipid dose 30 mg/kg

In the case of `CC[C@]1(O)C[C@H]2CN(CCc3c([nH]c4ccccc34)[C@@](C(=O)OC)(c3cc4c(cc3OC)N(C=O)[C@H]3[C@@](O)(C(=O)OC)[C@H](OC(C)=O)[C@]5(CC)C=CCN6CC[C@]43[C@@H]65)C2)C1` [Free Vincristine], the “Median Survival” value [1, 3] is reported as 14.0 days, the “60-day Survival” value [1, 3] is reported as 0/5 and the “% ILS (increase in life span)” value ([1]; drug dose 1.0 mg/kg) is reported as 40%. The “Median Survival” value [1, 4] was 15.0 days, the “60-day Survival” value [1, 4] was 0/5 and the “% ILS (increase in life span)” value ([1]; drug dose 2.0 mg/kg) was 50%. The “Median Survival” value [1, 5] was 16.0 days, the “60-day Survival” value [1, 5] was 0/5 and the “% ILS (increase in life span)” value ([1]; drug dose 3.0 mg/kg) was 60%. The long-term survivors ([1]; long-term = >70 days) was “No long-term survivors”, the “% wt change on day 7” value [2, 3] was “+1.9%” and the “% wt change on day 7” value [2, 4] was “+0.5%”. For the same compound, the “% wt change on day 7” value [2, 5] was -13.4%.
